Laboratory results reported in patent US8067468B2, “L-carnitine and alkanoyl L-carnitine phytates and process for preparing the same” (priority 2009, dated 2011).
Structures can show the parent of a compound that is named as a salt. Blank lines part the entries; values can stand above or below the molecule they belong to.

How the values were obtained:
[1] = pH value of the product (c=1% H2O); assay type: physicochemical
Experimental: According to one embodiment, the solution (having a pH value of about 4) was further stirred 20 minutes. According to one embodiment, the solution was concentrated on an evaporator under a vacuum at 50° C. According to one embodiment, the residue was repeatedly (3 times) taken up using anhydrous ethanol under a vacuum to dry the solution as much as possible.

[2] = Odor of the dried product (sign of decomposition / acid smell); assay type: physicochemical; settings: dried solid product
Experimental: According to one embodiment, 96.7 grams (0.6 mole) of L-carnitine inner salt (C7H15NO3, molecular weight 161.20) was added to a 50% aqueous solution (having a pH value <1) of 66.0 grams (0.1 mole) phytic acid and stirred at room temperature resulting in an exothermic reaction. […] According to one embodiment, the solution (having a pH value of about 4) was further stirred 20 minutes. […] According to one embodiment, the residue is further dried in a vacuum oven at 50° C. to obtain 166.2 grams of white solid powder with an almost quantitative yield (i.e., the white solid powder contains 2% H2O).
According to one embodiment, 122.09 grams (0.6 mole) of acetyl L-carnitine inner salt (C9H17NO4, molecular weight 203.24) was added to a 50% aqueous solution (having a pH value <1) of 66.0 grams (0.1 mole) phytic acid and stirred at room temperature resulting in an exothermic reaction. […] According to one embodiment, the residue is further dried in a vacuum oven at 50° C. to obtain 192.7 grams of white solid powder with an almost quantitative yield (i.e., the white solid powder contains 2% H2O). […]

[3] = cited from earlier work
[4] = post-administration, independent of route; cited from earlier work
[5] = test system: human mammary cancer cell line; settings: incubated with a human mammary cancer cell line; cited from earlier work
[6] = test system: mice; assay: Single dose oral acute toxicity study (LD50); assay type: in vivo
Experimental: The single dose oral acute toxicity of L-carnitine phytate (in a 6:1 mole ratio) was evaluated in mice. Five dosages (25, 20, 15, 10, and 5 g/Kg) were orally administrated to five groups of mice in which each group had five male and five female mice. After dosing, the five groups of mice were observed and daily records (for 14 days) were made of their general conditions, toxic response, and deaths. All of the dead mice were necropsied, in which each of the body's thorace and abdomen were opened, and each heart, liver, spleen, lung, kidney, and intestine were examined and recorded.

Molecule: CC(=O)O[C@H](CC(=O)O)C[N+](C)(C)C [Example Embodiment 3, Acetyl L-Carnitine Phytate (in a 6:1 mole ratio)]
pH value [1]: 4
odor [2]: odorless

pH value [1]: 4
Molecule: CC(C)C(=O)O[C@H](CC(=O)O)C[N+](C)(C)C [Example Embodiment 6, Isobutyryl L-Carnitine Phytate (in a 6:1 mole ratio)]

Molecule: C[N+](C)(C)C[C@H](O)CC(=O)[O-] [L-carnitine's inner salt, L-carnitine inner salt]
pKa value [3]: 3.8

Molecule: O=P(O)(O)O[C@H]1[C@H](OP(=O)(O)O)[C@@H](OP(=O)(O)O)[C@H](OP(=O)(O)O)[C@@H](OP(=O)(O)O)[C@H]1OP(=O)(O)O [phytic acid, Phytic acid]
time to reach targeted tumor tissue [4]: as early as one hour post-administration
time of first detection of IP6 in cells [5]: as early as one minute post-incubation
pKa of the remaining three very weakly acidic sites [3]: greater than 10
pKa of the six strongly acidic proton dissociation sites ([3]; first dissociation proton of each phosphate group): ~1.5

pH value [1]: 4
Molecule: Butyryl L-Carnitine Phytate (in a 6:1 mole ratio) [Example Embodiment 5]

Molecule: L-Carnitine Phytate (in a 6:1 mole ratio) [Example Embodiment 2]
necropsy findings in hearts, livers, spleens, lungs, kidneys and intestines ([6]; single oral dose 5-25 g/Kg, dead mice necropsied): not any obvious abnormalities observed
acute oral LD50 ([6]; single oral dose, observed for 14 days): 14860 mg/kg

pH value [1]: 4
odor [2]: odorless
Molecule: Propinoyl L-Carnitine Phytate (in a 6:1 mole ratio) [Example Embodiment 4]
